pIC50: −log10 of the molar value. Like-named read-outs stand apart in the source and are kept apart here.
Biological target: 11β-HSD1 (Homo sapiens (Human), UniProt P28845)
Test: Biological Test Example 1: inhibition of a microsomal preparation of 11β-HSD1 (SPA)
Format: biochemical
Details: for inhibition at 0.111 µM: read-out: Average % inhibition at 111 nM
Method: All reactions were carried out at rt in 96 well clear flexible PET Microbeta plates (PerkinElmer). […] After a 10 minute pre-incubation, 50 μL of enzyme solution containing microsomes isolated from CHO cells overexpressing human 11-HSD1 (10-20 μg/ml of total protein) was added, and the plates were incubated for 90 minutes at rt. The reaction was stopped by adding 50 μl of the SPA beads suspension containing 10 μM […], 5 mg/ml protein A coated YSi SPA beads (GE Healthcare) and 3.3 μg/ml of anti-cortisol antibody (East Coast Biologics) in Superblock buffer (Bio-Rad). The plates were shaken for 120 minutes at rt, and the SPA signal corresponding to [^3H]cortisol was measured on a Microbeta plate reader.

[1] = Biological Test Example 1, 100 nM compound
[2] = Biological Test Example 1, microsomes from CHO cells overexpressing human 11β-HSD1, read-out: IC50 Range
[3] = Biological Test Example 1, read-out: IC50
[4] = read-out: Average % inhibition at 100 nM, Biological Test Example 1, 100 nM compound
[5] = read-out: Average % inhibition at 100 nM

11β-HSD1, sequence (P28845 whole entry): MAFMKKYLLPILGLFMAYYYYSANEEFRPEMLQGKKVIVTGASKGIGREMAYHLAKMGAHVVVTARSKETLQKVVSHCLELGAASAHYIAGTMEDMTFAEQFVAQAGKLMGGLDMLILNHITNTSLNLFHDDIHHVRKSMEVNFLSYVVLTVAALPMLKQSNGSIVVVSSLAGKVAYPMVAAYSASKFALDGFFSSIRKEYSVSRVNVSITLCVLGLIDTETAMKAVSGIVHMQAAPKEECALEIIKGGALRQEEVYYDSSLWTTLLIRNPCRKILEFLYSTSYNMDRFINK

SMILES: NC(=O)C12CC3CC(C1)C(OC(=O)N1CCC(c4ncc(F)cn4)C1)C(C3)C2 (single isomer, unassigned) [EXAMPLE 41 Isomer 1, 1-carbamoyl-4-adamantyl 3-(5-fluoropyrimidin-2-yl)pyrrolidine-1-carboxylate]
- Average % inhibition at 100 nM [1]: 92.3%

SMILES: Cc1noc(C2CCN(C(=O)O[C@H]3C4CC5CC3C[C@](C(N)=O)(C5)C4)C2)n1 (stereo partly drawn) [EXAMPLE 23, trans-1-carbamoyl-4-adamantyl 3-(3-methyl-1,2,4-oxadiazol-5-yl)pyrrolidine-1-carboxylate]
- pIC50 [2]: > 7.00
- pIC50 [3]: 7.75
- inhibition at 0.1 µM [4]: 79.3%

SMILES: O=C(OC1C2CC3CC1CC(O)(C3)C2)N1CCC(c2ncc(Cl)cn2)C1 (single isomer, unassigned) [EXAMPLE 24 Isomer 2, cis-1-hydroxy-4-adamantyl 3-(5-chloropyrimidin-2-yl)pyrrolidine-1-carboxylate]
- Average % inhibition at 100 nM [1]: 34.7%

SMILES: COC(=O)C1(c2ccccc2)CCN(C(=O)OC2C3CC4CC(C3)CC2C4)CC1 (stereo not shown) [EXAMPLE 11, 1-(2-adamantyl) 4-methyl 4-phenylpiperidine-1,4-dicarboxylate]
- pIC50 (IC50 Range): > 7.00
- inhibition at 0.111 µM: 86.3%
- pIC50 (read-out: IC50): 8.18

SMILES: NC(=O)[C@]12CC3CC(C1)[C@@H](OC(=O)N1CCCC1c1ncc(Cl)cn1)C(C3)C2 (stereo partly shown) [EXAMPLE 45, 1-carbamoyl-4-adamantyl 2-(5-chloropyrimidin-2-yl)pyrrolidine-1-carboxylate]
- pIC50 [2]: > 7.00
- pIC50 [3]: 7.87
- inhibition at 0.1 µM [4]: 87.5%

SMILES: CCOC(=O)C1(Cc2ccccc2OC)CCCN(C(=O)OC2C3CC4CC(C3)CC2C4)C1 (stereo not shown) [EXAMPLE 14, 1-(2-adamantyl) 3-ethoxycarbonyl-3-(2-methoxybenzyl)piperidine-1-carboxylate]
- pIC50 [2]: > 7.00
- inhibition at 0.111 µM: 87.6%
- pIC50 (read-out: IC50): 8.15

SMILES: Cn1c(=O)n([C@H]2CCN(C(=O)O[C@H]3C4CC5CC3C[C@](C(N)=O)(C5)C4)C2)c2ccc(C#N)cc21 [EXAMPLE 70, (S)-trans-1-carbamoyl-4-adamantyl 3-(5-cyano-3-methyl-2-oxo-2,3-dihydro-1H-benzo[d]imidazol-1-yl)pyrrolidine-1-carboxylate]
- pIC50 [2]: > 7.00
- inhibition at 0.1 µM [5]: 91.3%

SMILES: NC(=O)c1cnc(C2CCN(C(=O)OC3C4CC5CC3CC(C(N)=O)(C5)C4)C2)nc1 (single isomer, unassigned) [EXAMPLE 47 Isomer 2, 1-carbamoyl-4-adamantyl 3-(5-carbamoylpyrimidin-2-yl)pyrrolidine-1-carboxylate]
- Average % inhibition at 100 nM [1]: 55.6%
- pIC50 [2]: > 7.00
- pIC50 [3]: 7.04

SMILES: Cc1cnc(C2CCN(C(=O)OC3C4CC5CC3CC(C(N)=O)(C5)C4)C2)nc1 (single isomer, unassigned) [EXAMPLE 39 Isomer 1, 1-carbamoyl-4-adamantyl 3-(5-methylpyrimidin-2-yl)pyrrolidine-1-carboxylate]
- Average % inhibition at 100 nM [1]: 59.7%
- pIC50 [2]: > 7.00
- pIC50 [3]: 8.52

SMILES: NC(=O)[C@]12CC3CC(C1)[C@@H](OC(=O)N1CC[C@H](Oc4ncc(F)cc4F)C1)C(C3)C2 [EXAMPLE 2, (S)-(trans-(1-carbamoyl-4-adamantyl)) 3-(3,5-difluoropyridin-2-yloxy)pyrrolidine-1-carboxylate]
- pIC50 [2]: > 7.00
- pIC50 [3]: 9.17
- inhibition at 0.1 µM [4]: 96.2%

SMILES: NC(=O)C12CC3CC(C1)C(OC(=O)N1CCC(c4nccc(C(F)(F)F)n4)C1)C(C3)C2 (single isomer, unassigned) [EXAMPLE 48 Isomer 2, cis-1-carbamoyl-4-adamantyl 3-(4-(trifluoromethyl)pyrimidin-2-yl)pyrrolidine-1-carboxylate]
- Average % inhibition at 100 nM [1]: 16.1%

SMILES: Cc1ccc(C2CCN(C(=O)OC3C4CC5CC3CC(C(N)=O)(C5)C4)C2)nc1 (single isomer, unassigned) [EXAMPLE 35 Isomer 2, cis-1-carbamoyl-4-adamantyl 3-(5-methylpyridin-2-yl)pyrrolidine-1-carboxylate]
- Average % inhibition at 100 nM [1]: 8.1%
- pIC50 [2]: < 7.00
- pIC50 [3]: < 7.00

SMILES: NC(=O)[C@]12CC3CC(C1)[C@@H](OC(=O)N1CC[C@H](Oc4ccc(C(F)(F)F)cn4)C1)C(C3)C2 [EXAMPLE 6, (S)-(trans-(1-carbamoyl-4-adamantyl)) 3-(5-(trifluoromethyl)pyridin-2-yloxy)pyrrolidine-1-carboxylate]
- pIC50 [2]: > 7.00
- pIC50 [3]: 9.27
- inhibition at 0.1 µM [4]: 96.9%

SMILES: Cc1cc(C)nc(C2CCN(C(=O)OC3C4CC5CC3CC(C(N)=O)(C5)C4)C2)n1 (single isomer, unassigned) [EXAMPLE 43 Isomer 2, cis-1-carbamoyl-4-adamantyl 3-(4,6-dimethylpyrimidin-2-yl)pyrrolidine-1-carboxylate]
- Average % inhibition at 100 nM [1]: −1.8%
- pIC50 [2]: < 7.00
- pIC50 [3]: < 7.00

SMILES: Cc1nc2cccc(Cl)c2n1[C@@H]1CCN(C(=O)OC2C3CC4CC2CC(C(N)=O)(C4)C3)C1 (stereo partly drawn) [EXAMPLE 59, (R)-1-carbamoyl-4-adamantyl 3-(7-chloro-2-methyl-1H-benzo[d]imidazol-1-yl)pyrrolidine-1-carboxylate]
- pIC50 [2]: > 7.00
- pIC50 [3]: 8.72
- inhibition at 0.1 µM [4]: 96.7%

SMILES: NC(=O)C12CC3CC(C1)C(OC(=O)N1CCC(c4nccc(C(F)(F)F)n4)C1)C(C3)C2 (single isomer, unassigned) [EXAMPLE 48 Isomer 1, trans-1-carbamoyl-4-adamantyl 3-(4-(trifluoromethyl)pyrimidin-2-yl)pyrrolidine-1-carboxylate]
- Average % inhibition at 100 nM [1]: 94.5%

SMILES: Cc1nc2cccc(Cl)c2n1[C@H]1CCN(C(=O)OC2C3CC4CC2CC(C(N)=O)(C4)C3)C1 (stereo partly drawn) [EXAMPLE 76, (S)-1-carbamoyl-4-adamantyl 3-(7-chloro-2-methyl-1H-benzo[d]imidazol-1-yl)pyrrolidine-1-carboxylate]
- pIC50 [2]: > 7.00
- pIC50 [3]: 8.95
- inhibition at 0.1 µM [4]: 93.6%

SMILES: COC(=O)Cn1c(=O)n([C@H]2CCN(C(=O)O[C@H]3C4CC5CC3C[C@](C(N)=O)(C5)C4)C2)c2ccc(F)cc21 [EXAMPLE 72, (S)-trans-1-carbamoyl-4-adamantyl 3-(5-fluoro-3-(2-methoxy-2-oxoethyl)-2-oxo-2,3-dihydro-1H-benzo[d]imidazol-1-yl)pyrrolidine-1-carboxylate]
- pIC50 [2]: > 7.00
- pIC50 [3]: 8.15
- inhibition at 0.1 µM [4]: 84.9%

SMILES: NC(=O)[C@]12CC3CC(C1)[C@@H](OC(=O)N1CC[C@@H](Oc4ncc(F)cc4F)C1)C(C3)C2 (relative stereo) [EXAMPLE 1, (R)-(trans-(1-carbamoyl-4-adamantyl)) 3-(3,5-difluoropyridin-2-yloxy)pyrrolidine-1-carboxylate]
- Average % inhibition at 100 nM [1]: 95.53%
- pIC50 [2]: > 7.00
- pIC50 [3]: 8.81

SMILES: O=C(OC1C2CC3CC1CC(C(=O)O)(C3)C2)N1CCC(c2ncc(Cl)cn2)C1 (single isomer, unassigned) [EXAMPLE 46 Isomer 1, trans-4-((3-(5-chloropyrimidin-2-yl)pyrrolidine-1-carbonyl)oxy)adamantane-1-carboxylic acid]
- Average % inhibition at 100 nM [1]: 22.4%
- pIC50 [2]: < 7.00
- pIC50 [3]: < 7.00

SMILES: COc1cnc(C2CCN(C(=O)OC3C4CC5CC3CC(C(N)=O)(C5)C4)C2)nc1 (single isomer, unassigned) [EXAMPLE 44 Isomer 1, 1-carbamoyl-4-adamantyl 3-(5-methoxypyrimidin-2-yl)pyrrolidine-1-carboxylate]
- Average % inhibition at 100 nM [1]: 95.2%

SMILES: NC(=O)[C@]12CC3CC(C1)[C@@H](OC(=O)N1CCCC1c1ccccn1)C(C3)C2 (stereo partly drawn) [EXAMPLE 19, trans-1-carbamoyl-4-adamantyl 2-(pyridin-2-yl)pyrrolidine-1-carboxylate]
- pIC50 [2]: > 7.00
- pIC50 [3]: 8.17
- inhibition at 0.1 µM [5]: 93.2%

SMILES: NC(=O)[C@]12CC3CC(C1)[C@@H](OC(=O)N1CC[C@@H](Oc4ccc5nccn5n4)C1)C(C3)C2 [EXAMPLE 3, (R)-(trans-(1-carbamoyl-4-adamantyl)) 3-(imidazo[1,2-b]pyridazin-6-yloxy)pyrrolidine-1-carboxylate]
- pIC50 [2]: > 7.00
- pIC50 [3]: 8.19
- inhibition at 0.1 µM [4]: 92.1%

SMILES: O=C(OC1C2CC3CC(C2)CC1C3)N1CCC(c2ncc(Cl)cn2)C1 (stereo not shown) [EXAMPLE 34, 2-adamantyl 3-(5-chloropyrimidin-2-yl)pyrrolidine-1-carboxylate]
- pIC50 [2]: > 7.00
- pIC50 [3]: 9.28
- inhibition at 0.1 µM [4]: 96.8%

SMILES: Cc1cc(C2CCN(C(=O)OC3C4CC5CC3CC(C(N)=O)(C5)C4)C2)nn1C (single isomer, unassigned) [EXAMPLE 40 Isomer 1, 1-carbamoyl-4-adamantyl 3-(1,5-dimethyl-1H-pyrazol-3-yl)pyrrolidine-1-carboxylate]
- Average % inhibition at 100 nM [1]: 90.8%
- pIC50 [2]: > 7.00
- pIC50 [3]: 8.16

SMILES: COC(=O)COCC1(c2ccccc2)CCN(C(=O)OC2C3CC4CC(C3)CC2C4)CC1 (stereo not shown) [EXAMPLE 15, 2-adamantyl 4-((2-methoxy-2-oxoethoxy)methyl)-4-phenylpiperidine-1-carboxylate]
- inhibition at 0.111 µM (Biological Test Example 1, 111 nM compound): 80.6%
- pIC50 [2]: > 7.00
- pIC50 [3]: 8.27

SMILES: Cn1c(=O)n([C@@H]2CCN(C(=O)O[C@H]3C4CC5CC3C[C@](C(N)=O)(C5)C4)C2)c2ccccc21 [EXAMPLE 62, (R)-trans-1-carbamoyl-4-adamantyl 3-(3-methyl-2-oxo-2,3-dihydro-1H-benzo[d]imidazol-1-yl)pyrrolidine-1-carboxylate]
- pIC50 [2]: > 7.00
- pIC50 [3]: 8.51
- inhibition at 0.1 µM [4]: 92.7%

From patent publication US9163012B2, “Carbamate and urea inhibitors of 11β-hydroxysteroid dehydrogenase 1” (Vitae Pharmaceuticals, Inc., priority 2009, dated 2015)
